Laboratory results taken from US10118943B2, “Compounds and methods for inhibiting cell death” (Ramot at Tel-Aviv University Ltd., priority 2012, dated 2018).
“Also recorded” adds a separate entry of the source.

Legend:
rat brain extracts = experiment: NAP / D-SAL affinity chromatography with rat brain extracts, mass spectrometry; format: binding; settings: repeated twice
Protocol: The affinity chromatography column included SulfoLink® Immobilization Kit for Peptides (44999, Thermo Scientific, Rockford, Ill., USA). Binding of […] was performed according to the manufacturers' instruction. Recombinant protein was loaded (2 mg/mL) on the columns (2 mL) and incubated overnight at 4° C.; the columns were then washed with phosphate-buffered saline until all unbound protein was eluted [as confirmed by protein assay (Bradford; Bio-Rad Laboratories, Mannheim, Germany)]. NAP-binding proteins were eluted in IgG Elution buffer (pH 2.8) (Thermo scientific). […] Sodium dodecyl sulfate-polyacrylamide gel electrophoresis (SDS-PAGE) was then performed followed by western blot analysis in order to detect the protein (R. Zamostiano et al., J Biol Chem 276, 708 (Jan. 5, 2001)).
Affinity chromatography was carried out as above with rat brain extracts as before (34, 36). However, several additional experiments were undertaken and mass spectrometry was employed to identify additional potential NAP-interacting proteins that elute from the affinity column.

PC12 cells [1] = experiment: PC12 cell survival assay, zinc toxicity, MTS (Example 1); settings: for protection against zinc-induced PC12 cell death (MTS) with EB3 silenced: RNA silencing of EB3
Protocol: PC12 cells (Pheochromocytoma cells) (ATCC, Bethesda, Md., USA) were seeded at 3×10^4 cells/cm^2 on poly-L-Lysine coated plastic tissue culture dishes (Corning, Lowell, Mass., USA) to form an adherent monolayer. Cells were maintained in Dulbecco's modified Eagle's medium (DMEM) supplemented with 10% horse serum (HS), 5% fetal calf serum (FCS), 2 mM glutamine, 100 U/ml penicillin and […] streptomycin (Biological Industries, Beit Haemek, Israel). PC12 differentiation was induced by nerve growth factor (NGF, Sigma) at concentrations of 50 ng/ml by replacing half of the medium every other day until the cells acquired a differentiated morphology. Differentiated cells were defined as bearing two or more neurites with lengths equal to or more than twice the diameter of the cell body (P. Lamoureux et al., The Journal of cell biology 110, 71 (January, 1990)). The cells were incubated in 5% CO2 in a humidified incubator at 37° C. The cells were sub-cultured every 5 days at a 4:1 split ratio by pipetting. The medium was changed every 2 or 3 days after adhesion.
Transfections were performed using Lipofectamine RNAiMAX (Invitrogen). Transfection was carried out according to manufacturer's protocol. For rat MAPRE3 knockdown, PC12 cells or neurons were plated in growth medium without antibiotics at concentration of 10^4 cells/0.32 cm^2 such that they will be 30-50% confluent at the time of transfection. To obtain the highest transfection efficiency and low non-specific effects, siRNA transfection was performed in the following optimized conditions: 50 nM for neurons and 25 nM PC12 of each siRNA construct with 0.2 μl Lipofectamine RNAiMAX (Invitrogen) was added per well of the 96-well plate and scaled up for different 24 or 6-well plates, according to the manufacturer's instructions. The medium was changed one day after transfection. 48 and 72 hours later, cells were harvested to assay for gene knockdown at the RNA and protein levels.
The cells were incubated for 4 hrs at 37° C. 5% CO2. Survival was measured using the MTS assay.
Metabolic activity of cells was measured by the CellTiter 96® Aqueous Non-Radioactive Cell Proliferation kit in accordance with the manufacturer's instructions (Promega). The assay uses a colorimetric method for determining the number of viable cells employing a tetrazolium compound [3-(4,5-dimethylthiazol-2-yl)-5-(3-carboxymethoxyphenyl)-2-(4-sulfophenyl)-2H-tetrazolium, MTS] and an electron-coupling reagent, phenazine methosulfate (PMS). MTS is bio-reduced by cells into a formazan product that is detected at 490 nm. The conversion of MTS into the formazan form is accomplished by dehydrogenase enzymes found in metabolically active cells. Thus, the quantity of formazan product as measured by the amount of 490 nm absorbance is directly proportional to the number of living cells in culture (A. H. Cory, T. C. Owen, J. A. Barltrop, J. G. Cory, Cancer Commun 3, 207 (July, 1991)).

primary cortical neurons = experiment: PSD-95 density in primary cortical neuron culture; format: cell-based, rat
Protocol: Methods: 1. Primary cultures of neurons were prepared as follows. Newborn rats were sacrificed on postnatal day 1. Cerebral cortex tissue was then dissected and dissociated individually from each pup with the Papain Dissociation System (PDS; Worthington Biochemical Corporation) according to the manufacturer's instructions. 2. Cells were fixed with ice cold methanol, blocked with 2% bovine serum albumin (BSA) and 5% normal goat serum in Tris buffered saline containing tween 20 (TBS-T; 20 mM Tris pH 7.5, 136.8 mM NaCl, and 0.05% v/v Tween 20), and incubated with primary antibody followed by the appropriate secondary antibody. 3. Primary antibodies that were used include: monoclonal anti PSD-95 (ab-2723, Abcam), monoclonal anti Tyr-α-tubulin antibody (YL1/2) (VMA1864, Abcys, Paris, France), polyclonal anti Glu-α-tubulin antibody (L4) (AbC0101, Abcys, Paris, France), DyLight 488-labeled secondary goat anti-mouse IgG, DyLight 633-labeled secondary goat anti-rabbit IgG (KPL, Gaithersburg, Md., USA), Cy3-conjugated secondary goat anti-Rat IgG, (Jackson ImmunoResearch). 4. Images were collected with a Leica SP5 confocal laser scanning microscope (Mannheim, Germany) with 63× oil immersion optics, laser lines at 488, 561, 633 nm. Identical confocal laser scanning microscopy (CLSM) parameters (e.g., scanning line, laser light, gain, and offset etc.) were used for control and NAP treated cells.
For instance, a PSD-95 expression assay using primary cortical neuron cultures established from suitable animals may be performed to confirm a compound's activity in promoting cell plasticity. More specifically, primary cultures of neurons are prepared by first taking cerebral cortex tissue from newborn rats on postnatal day 1. The cerebral cortex tissue is then dissected and dissociated individually from each animal. Cells are fixed with ice cold methanol, blocked (e.g., with bovine serum albumin (BSA) and normal goat serum), and incubated with primary antibody (e.g., monoclonal antibody against PSD-95), optionally followed by the appropriate secondary antibody for imaging purposes. Images of primary neuronal cultures are taken and compared between cultures with or without being exposed to a test compound. An increased PSD-95 expression is indicative of the test compound being capable of promoting or protecting cell plasticity, especially neuronal plasticity.
Cerebral cortex tissue from newborn rats was dissected and dissociated individually from each pup with the Papain Dissociation System (PDS), (Worthington Biochemical Corporation) according to the manufacturer's instructions. Cortical neurons were maintained in Neurobasal medium (NB), (Gibco) supplemented with NeuroCult B27-SM1 ([…]), 1% Glutamax (Gibco), and grown on poly-D-lysine-coated cell culture glass cover slips.
Images were collected with a Leica SP5 confocal laser scanning microscope (Mannheim, Germany) with 63× oil immersion optics, laser lines at 488, 561, 633 nm or with LSM 510 META (Zeiss, Jena, Germany) confocal laser scanning microscope with 63× oil immersion optics, laser lines at 488, 568, 633 nm. When comparing fluorescence intensities, identical CLSM parameters (e.g., scanning line, laser light, gain, and offset etc.) were used. All of the fluorescent signals acquired were above the autofluorescent background as measured from a control slide stained with secondary antibody without a primary antibody. To compare the relative levels of protein expression, the average integrated density (AID) image analysis procedure was used for cell immunostains. In brief, integrated density is defined by the sum of the values of the pixels in the selected region of interest (ROI). This is equivalent to the product of Area and Mean Gray Value. AID for the positive stained area was determined by measuring the fluorescent intensity of the ROI, which is above the positive cut-off intensity. […]

PC12 cells [2] = settings: ZnCl2 400 μM, 4 h
Protocol: FIG. 15: Rat pheochromocytoma cells (PC12) were seeded on Poly-D-Lysine coated 96-well tissue culture dishes in high concentration (30,000 cells/well). On the day of the experiment the cells were treated with ZnCl2 (400 μM) either alone or in combination with different concentration of SKIP for 4 h. After 4 h the cell viability was analyzed by MTS assay. […] All values are from one experiment performed in hexplicate.
Rat pheochromocytoma cell (PC12, ATCC, Bethesda, Md., USA) were grown in 10-cm tissue culture dishes (Corning). The base medium for this cell line was RPMI-1640 Medium (Invitrogen) supplemented with 10% heat-inactivated horse serum, 5% fetal bovine serum and solution containing 100 U/ml penicillin together with […] streptomycin (Biological Industries, Beit Haemek, Israel). The cells were incubated in 95% air; 5% CO2 in a humidified incubator at 37° C. The medium was changed every 2 to 3 days. The cells were subcultured when cell density reached 4×10^6 cells/ml. The cells were split in a ratio of 1:4.
On the day before the experiment cells were to be harvested, re-suspended and seeded on tissue culture dishes. For cell viability measurements, cells were seeded on Poly-D-Lysine coated 96-well tissue culture dishes (Sigma-Aldrich) at a concentration of 3×10^4 cells/well.
The cell viability is measured by colorimetric method that determines the number of viable cells in culture. This method is based on the bio-reduction of the tetrazolium compound [3-(4,5-dimethylthiazol-2-yl)-5-(3-carboxymethoxyphenyl)-2-(4-sulfophenyl)-2H-tetrazolium; MTS] by living cells into a colored formazan product. This reaction is occurring in the presence of an electron coupling reagent (phenazine ethosulfate; PES). The amount of formazan product is measured by ELISA plate reader at 490 nm and is directly proportional to the number of living cells in culture (CellTiter 96® AQueous One Solution Cell Proliferation Assay; Promega, Madison, Wis., USA).

PC12 cells [3] = settings: previously published data, read-out: EC50 for zinc cell killing effect; cited from earlier work

## CC[C@H](C)[C@H](NC(=O)[C@H](CO)NC(=O)[C@@H](NC(=O)[C@@H]1CCCN1C(=O)[C@H](C)NC(=O)[C@@H](N)CC(N)=O)C(C)C)C(=O)N1CCC[C@H]1C(=O)N[C@@H](CCC(N)=O)C(=O)O [NAP]
Rat brain extracts
  interaction with drebrin (affinity column eluate, mass spectrometry): specific interaction
PC12 cells [1]; 400 μM zinc, 4 hrs, peptide 10^−9M
  protection against cell death induced by zinc toxicity (MTS survival): significant protection effect; also recorded: significantly increased survival
PC12 cells [1]; 400 μM zinc, 4 hrs, peptide 10^−15M
  protection against cell death induced by zinc toxicity (MTS): significant protection effect
PC12 cells [1]; 500 microM zinc, NAP 10^−15M
  protection against zinc-induced PC12 cell death (MTS) with EB3 silenced: not in the presence of EB3 silencing
PC12 cells [1]; 500 microM zinc, NAP 10^−15M, listed as NAPVSIPQ
  protection against zinc-induced PC12 cell death (MTS) with EB3 silenced: does not protect
PC12 cells [1]; 500 microM zinc, NAP 10^−15M, control situations (non-specific siRNA, no treatment)
  protection against zinc-induced PC12 cell death (MTS): protected against by NAP treatment; also recorded: protects in the control situations
Primary cortical neurons; 10^−12M NAP, 48 hours siRNA against EB3
  effect on PSD-95 expression with EB3 silencing: abolished NAP activity; also recorded: completely inhibited
Primary cortical neurons; 10^−12M, 2 hrs, 13 DIV cortical neurons (FIG. 10d)
  increase in PSD-95 expression: 75%
Primary cortical neurons; 10^−12M, DIV 13, 2 hours
  PSD-95 expression in dendrites (FIG. 11): enhances PSD-95 expression
Primary cortical neurons; NAP 10^−18M-10^−9M, DIV 13, 2 hrs
  density of PSD-95 puncta vs vehicle controls: significantly increased
Primary cortical neurons; NAP concentration of 10-12M, 2 hours
  peak effect on density of PSD-95 over control: 50%
Primary cortical neurons; neurons treated for 2 hrs
  derivative peptides effect on PSD-95 density vs vehicle controls (FIG. 10c): significantly increased

## [Cl-].[Cl-].[Zn+2] [zinc, ZnCl2]
PC12 cells [1]; PC12 cells, 4 hrs, data not shown
  zinc concentration at which significant cell death was observed: > 200 µM
PC12 cells [1]; vs control without zinc
  reduction of cell viability by zinc: ~25%
PC12 cells [2]
  cell death from zinc treatment: ~20%
PC12 cells [3]
  EC50: 308 ± 38 µM
